Measurements taken from patent US20260008758A1, “LINEAR DIPEPTIDYL PEPTIDASE 1 INHIBITORS AND USES THEREOF” (Insmed Incorporated, priority 2024, published 2026).

Legend:
[1] = molecular target: active mouse DPP1 enzyme (Mus musculus (Mouse), UniProt P97821); assay: Mouse DPP1 enzyme IC50 assay; type: biochemical; details: active mouse DPP1, H-Gly-Arg-AMC substrate 400 μM
Description: 25 μL of compound in Assay Buffer plus 5% DMSO was first added to 50 μL of active mouse DPP1 enzyme at a concentration of 62.5 pg/μL and allowed to pre-incubate for 10 minutes at 37° C. after which 50 μL of 1000 μM H-Gly-Arg-AMC substrate (Bachem; St. Torrance, CA) was added, giving final substrate concentration of 400 μM and a final DMSO concentration of 1%. Substrate cleavage was measured for 90 minutes at 37° C., with fluorescence at Excitation/Emission 350/450 nm measured every 5 minutes. DPP1 concentration was interpolated based on its activity relative to a standard curve of recombinant active mouse DPP1 enzyme. IC50 values for each compound were calculated via the XLFit (IDBS Version 5.3.1.3) Add-On to Microsoft Excel using the four parameter fit equation y=(A+((B-A)/(1+((C/x)^D)))), which appears as equation number 205 (4 Parameter Logistic Model or Sigmoidal Dose-Response Model) in XLFit. Default constraints were used for each Parameter.

[2] = molecular target: human DPP1 enzyme (Homo sapiens (Human), UniProt P53634); assay: Human DPP1 enzyme IC50 assay; type: biochemical; details: recombinant human DPP1, H-Gly-Arg-AMC substrate 400 μM
Chain of human DPP1 enzyme (P53634 25-134): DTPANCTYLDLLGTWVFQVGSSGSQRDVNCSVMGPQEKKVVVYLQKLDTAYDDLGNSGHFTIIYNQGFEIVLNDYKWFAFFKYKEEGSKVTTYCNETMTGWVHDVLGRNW
Chain of human DPP1 enzyme (P53634 231-394): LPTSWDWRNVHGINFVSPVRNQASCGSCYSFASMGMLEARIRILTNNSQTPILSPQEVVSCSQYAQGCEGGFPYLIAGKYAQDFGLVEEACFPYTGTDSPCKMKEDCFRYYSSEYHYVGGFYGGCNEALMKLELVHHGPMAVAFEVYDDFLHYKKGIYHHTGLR
Chain of human DPP1 enzyme (P53634 395-463): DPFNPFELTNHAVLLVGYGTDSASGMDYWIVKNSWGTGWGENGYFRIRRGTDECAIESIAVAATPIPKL
Method in brief: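 Fluorogenic readout (350/450 nm, every 5 min over 90 min, 37°C) of H-Gly-Arg-AMC cleavage at 400 μM final substrate. Compounds met activated DPP1 first for a 10-min 37°C pre-incubation in MES buffer pH 6.0 with DTT, 1% DMSO final. Four-parameter sigmoidal fit gave IC50.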

[3] = molecular target: DPP1 in HL-60 cells (Homo sapiens (Human), UniProt P53634); assay: DPP1 Cell IC50 assay; type: cell-based; details: H-Gly-Phe-AFC substrate, 60 min pre-incubation
Chain of DPP1 in HL-60 cells (P53634 25-134): as the sequence (P53634 25-134) above
Chain of DPP1 in HL-60 cells (P53634 231-394): as the sequence (P53634 231-394) above
Chain of DPP1 in HL-60 cells (P53634 395-463): as the sequence (P53634 395-463) above
Method in brief: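 HL-60 cells (5×10^5 live cells/mL in PBS) were pre-incubated with compound in 0.5% DMSO for 60 min at 37 °C, 5% CO2, with shaking, then given 500 μM H-Gly-Phe-AFC solution for 30 min. Fluorescence was read at 400/505 nm. % inhibition was taken against vehicle wells, and IC50 came from a four-parameter logistic fit.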

Chain of active mouse DPP1 enzyme (P97821 25-134): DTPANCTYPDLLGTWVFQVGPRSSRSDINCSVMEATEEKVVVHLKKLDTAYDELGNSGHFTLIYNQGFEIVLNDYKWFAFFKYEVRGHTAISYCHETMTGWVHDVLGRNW
Chain of active mouse DPP1 enzyme (P97821 231-393): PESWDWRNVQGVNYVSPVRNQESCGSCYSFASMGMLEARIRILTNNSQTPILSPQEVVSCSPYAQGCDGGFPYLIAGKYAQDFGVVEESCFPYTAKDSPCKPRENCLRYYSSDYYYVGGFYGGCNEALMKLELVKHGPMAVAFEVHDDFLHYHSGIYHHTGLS
Chain of active mouse DPP1 enzyme (P97821 394-462): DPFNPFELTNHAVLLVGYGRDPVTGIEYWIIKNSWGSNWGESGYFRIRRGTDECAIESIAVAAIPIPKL

`CN[C@H](C)C(=O)N[C@H](C#N)Cc1ccc(-c2ccc3oc(=O)n(C)c3c2)cc1` [Compound 152, (R)—N—((S)-1-cyano-2-(4-(3-methyl-2-oxo-2,3-dihydrobenzo[d]oxazol-5-yl)phenyl)ethyl)-2-(methylamino)propanamide] was tested. Which IC50 [1] did it give?
Its IC50 is at least 20 nM.

And the IC50 [2]?
Its IC50 is at least 15 nM.

Which results are given for `Cn1c(=O)oc2ccc(-c3ccc(C[C@@H](C#N)NC(=O)CCC(N)=O)cc3)cc21` [Compound 153]?
IC50 [1]: ≥ 20 nM; IC50 [2]: ≥ 15 nM

Which results are given for `CN[C@@H](C)C(=O)N[C@H](C#N)Cc1ccc(-c2ccc3oc(=O)n(C)c3c2)cc1` [Compound 154]?
IC50 [1]: ≥ 20 nM; IC50 [2]: ≥ 15 nM

How did the IC50 [1] turn out when `Cn1c(=O)oc2ccc(-c3ccc(C[C@@H](C#N)NC(=O)C(C)(C)CN)cc3)cc21` [Compound 155] was run?
Its IC50 is at least 20 nM.

What about the IC50 [2] of the same molecule?
Its IC50 is at least 15 nM.

Which results are given for `CNCCC(=O)N[C@H](C#N)Cc1ccc(-c2ccc3oc(=O)n(C)c3c2)cc1` [Compound 156]?
IC50 [1]: ≥ 20 nM; IC50 [2]: ≥ 15 nM

Which IC50 [1] does the source give for `Cn1c(=O)oc2ccc(-c3ccc(C[C@@H](C#N)NC(=O)CCN)cc3)cc21` [Compound 157] here?
The IC50 was at least 20 nM.

And the IC50 [2]?
Its IC50 is at least 15 nM.

Which results are given for `CN(C)CC(=O)N[C@H](C#N)Cc1ccc(-c2ccc3oc(=O)n(C)c3c2)cc1` [Compound 158]?
IC50 [1]: ≥ 20 nM; IC50 [2]: ≥ 15 nM

`Cn1c(=O)oc2ccc(-c3ccc(C[C@@H](C#N)NC(=O)CC(N)C(N)=O)cc3)cc21` (stereo partly drawn) [Compound 159] was tested. Which IC50 [1] did it give?
The IC50 was at least 20 nM.

What about the IC50 [2] of the same molecule?
Its IC50 is at least 15 nM.

What does the source list for `CC(N)CC(=O)N[C@H](C#N)Cc1ccc(-c2ccc3oc(=O)n(C)c3c2)cc1` (stereo partly drawn) [Compound 160]?
IC50 [1]: ≥ 20 nM; IC50 [2]: ≥ 15 nM

`CC(CN)C(=O)N[C@H](C#N)Cc1ccc(-c2ccc3oc(=O)n(C)c3c2)cc1` (stereo partly drawn) [Compound 161] was tested. Which IC50 [1] did it give?
The IC50 was at least 20 nM.

And the IC50 [2]?
Its IC50 is at least 15 nM.

`CCC(N)CC(=O)N[C@H](C#N)Cc1ccc(-c2ccc3oc(=O)n(C)c3c2)cc1` (stereo partly drawn) [Compound 162] was tested. Which IC50 [1] did it give?
Its IC50 is at least 20 nM.

And the IC50 [2]?
Its IC50 is at least 15 nM.

How did the IC50 [1] turn out when `C=CC[C@H](N)CC(=O)N[C@H](C#N)Cc1ccc(-c2ccc3oc(=O)n(C)c3c2)cc1` [Compound 163] was run?
The IC50 was at least 20 nM.

What about the IC50 [2] of the same molecule?
The IC50 was at least 15 nM.

Which IC50 [1] does the source give for `Cn1c(=O)oc2ccc(-c3ccc(C[C@@H](C#N)NC(=O)CC(N)C(F)F)cc3)cc21` (stereo partly drawn) [Compound 166] here?
The IC50 was at least 20 nM.

And the IC50 [2]?
The IC50 was at least 15 nM.

Which results are given for `Cn1c(=O)oc2ccc(-c3ccc(C[C@@H](C#N)NC(=O)C[C@@H](N)Cc4cccs4)cc3)cc21` [Compound 181]?
IC50 [1]: ≥ 20 nM; IC50 [2]: ≥ 15 nM

How did the IC50 [1] turn out when `Cn1c(=O)oc2ccc(-c3ccc(C[C@@H](C#N)NC(=O)CC(N)CCc4ccccc4)cc3)cc21` (stereo partly drawn) [Compound 183] was run?
Its IC50 is at least 20 nM.

What about the IC50 [2] of the same molecule?
The IC50 was at least 15 nM.

With `Cn1c(=O)oc2ccc(-c3ccc(C[C@@H](C#N)NC(=O)CC(N)Cc4ccccc4)cc3)cc21` (stereo partly drawn) [Compound 184, 3-amino-N-[(1S)-1-cyano-2-[4-(3-methyl-2-oxo-2,3-dihydro-1,3-benzoxazol-5-yl)phenyl]ethyl]-4-phenylbutanamide] as the molecule, how does the IC50 [1] read?
Its IC50 is at least 20 nM.

And the IC50 [2]?
Its IC50 is at least 15 nM.

`Cn1c(=O)oc2ccc(-c3ccc(C[C@@H](C#N)NC(=O)CC(N)Cc4ccsc4)cc3)cc21` (stereo partly drawn) [Compound 185] was tested. Which IC50 [1] did it give?
The IC50 was at least 20 nM.

And the IC50 [2]?
Its IC50 is at least 15 nM.

For `Cn1c(=O)oc2ccc(-c3ccc(C[C@@H](C#N)NC(=O)C[C@@H](N)Cc4ccccc4)cc3)cc21` [Compound 186], which IC50 [1] is on record?
The IC50 was at least 20 nM.

What about the IC50 [2] of the same molecule?
Its IC50 is at least 15 nM.

Which results are given for `Cn1c(=O)oc2ccc(-c3ccc(C[C@@H](C#N)NC(=O)C[C@H](N)Cc4ccccc4)cc3)cc21` [Compound 187]?
IC50 [1]: ≥ 20 nM; IC50 [2]: ≥ 15 nM

What does the source list for `Cn1c(=O)oc2ccc(-c3ccc(C[C@@H](C#N)NC(=O)CCNC(=O)c4cccs4)cc3)cc21` [Compound 238, N-[(1S)-1-cyano-2-[4-(3-methyl-2-oxo-1,3-benzoxazol-5-yl)phenyl]ethyl]-3-(thiophen-2-ylformamido)propanamide]?
IC50 [1]: ≥ 20 nM; IC50 [2]: ≥ 15 nM

How did the IC50 [1] turn out when `Cn1c(=O)oc2ccc(-c3ccc(C[C@@H](C#N)NC(=O)CNC(=O)c4cccs4)cc3)cc21` [Compound 239, N-[(1S)-1-cyano-2-[4-(3-methyl-2-oxo-1,3-benzoxazol-5-yl)phenyl]ethyl]-2-(thiophen-2-ylformamido)acetamide] was run?
The IC50 was at least 20 nM.

For `Cn1c(=O)oc2ccc(-c3ccc(C[C@@H](C#N)NC(=O)CCOC(=O)c4cccs4)cc3)cc21` [Compound 244, 2-{[(1S)-1-cyano-2-[4-(3-methyl-2-oxo-1,3-benzoxazol-5-yl)phenyl]ethyl]carbamoyl}ethyl thiophene-2-carboxylate], which IC50 [1] is on record?
The IC50 was at least 20 nM.

With `Cn1c(=O)oc2ccc(-c3ccc(C[C@@H](C#N)NC(=O)COC(=O)c4cccs4)cc3)cc21` [Compound 245, (S)-2-((1-cyano-2-(4-(3-methyl-2-oxo-2,3-dihydrobenzo[d]oxazol-5-yl)phenyl)ethyl)amino)-2-oxoethyl thiophene-2-carboxylate] as the molecule, how does the IC50 [1] read?
The IC50 was at least 20 nM.

Which results are given for `CN(C)C[C@H](O)C(=O)N[C@H](C#N)Cc1cc2c(cc1F)-c1ccc(C#N)cc1CO2` [Compound 277A, (2S)—N-[(1S)-1-cyano-2-{8-cyano-2-fluoro-6H-benzo[c]chromen-3-yl}ethyl]-3-(dimethylamino)-2-hydroxypropanamide]?
IC50 [3]: ≥ 0.0025 µM; IC50 [2]: ≥ 15 nM

How did the IC50 [3] turn out when `CN(C)C[C@H](F)C(=O)N[C@H](C#N)Cc1ccc(-c2ccc3oc(=O)n(C)c3c2)cc1F` [Compound 278, (2S)—N-[(1S)-1-cyano-2-[2-fluoro-4-(3-methyl-2-oxo-1,3-benzoxazol-5-yl)phenyl]ethyl]-3-(dimethylamino)-2-fluoropropanamide] was run?
The IC50 was at least 0.0025 µM.

What about the IC50 [2] of the same molecule?
The IC50 was at least 15 nM.

Which IC50 [3] does the source give for `CN(C)C[C@H](O)C(=O)N[C@H](C#N)Cc1ccc(-c2ccc3c(c2)C(C2CCN(C4COC4)CC2)OC3)cc1` (stereo partly drawn) [Compound 281, (2S)—N-[(1S)-1-cyano-2-(4-{3-[1-(oxetan-3-yl)piperidin-4-yl]-1,3-dihydro-2-benzofuran-5-yl}phenyl)ethyl]-3-(dimethylamino)-2-hydroxypropanamide] here?
The IC50 was at least 0.0025 µM.

And the IC50 [2]?
Its IC50 is at least 15 nM.

How did the IC50 [3] turn out when `CN(C)C[C@H](O)C(=O)N[C@H](C#N)Cc1ccc(-c2ccc3cnn(C4CCN(C5COC5)CC4)c3c2)cc1` [Compound 282, (2S)—N-[(1S)-1-cyano-2-(4-{1-[1-(oxetan-3-yl)piperidin-4-yl]indazol-6-yl}phenyl)ethyl]-3-(dimethylamino)-2-hydroxypropanamide] was run?
The IC50 was at least 0.0025 µM.

And the IC50 [2]?
The IC50 was at least 15 nM.

`CN(C)C[C@H](O)C(=O)N[C@H](C#N)Cc1ccc(-c2ccc3c(c2)C2(CCN(C4COC4)CC2)OC3)cc1F` [Compound 283, (2S)—N-[(1S)-1-cyano-2-{2-fluoro-4-[1′-(oxetan-3-yl)-3H-spiro[2-benzofuran-1,4′-piperidin]-6-yl]phenyl}ethyl]-3-(dimethylamino)-2-hydroxypropanamide] was tested. Which IC50 [3] did it give?
The IC50 was at least 0.0025 µM.

What about the IC50 [2] of the same molecule?
Its IC50 is 5 to 15 nM.

How did the IC50 [3] turn out when `CO[C@@H](CN(C)C)C(=O)N[C@H](C#N)Cc1ccc(-c2ccc3c(c2)C2(CCN(C4COC4)CC2)OC3)cc1F` [Compound 284, (2S)—N-[(1S)-1-cyano-2-{2-fluoro-4-[1′-(oxetan-3-yl)-3H-spiro[2-benzofuran-1,4′-piperidin]-6-yl]phenyl}ethyl]-3-(dimethylamino)-2-methoxypropanamide] was run?
Its IC50 is at least 0.0025 µM.

And the IC50 [2]?
The IC50 was 5 to 15 nM.

With `CN(C)C[C@H](O)C(=O)N[C@H](C#N)Cc1ccc(-c2ccc3cnn(C4CCN(C)CC4)c3c2)cc1F` [Compound 285, (S)—N—((S)-1-cyano-2-(2-fluoro-4-(1-(1-methylpiperidin-4-yl)-1H-indazol-6-yl)phenyl)ethyl)-3-(dimethylamino)-2-hydroxypropanamide] as the molecule, how does the IC50 [3] read?
The IC50 was at least 0.0025 µM.

And the IC50 [2]?
Its IC50 is 5 to 15 nM.

Which results are given for `CO[C@@H](CN(C)C)C(=O)N[C@H](C#N)Cc1ccc(-c2ccc3cnn(C4CCN(C)CC4)c3c2)cc1F` [Compound 286, (S)—N—((S)-1-cyano-2-(2-fluoro-4-(1-(1-methylpiperidin-4-yl)-1H-indazol-6-yl)phenyl)ethyl)-3-(dimethylamino)-2-methoxypropanamide]?
IC50 [3]: ≥ 0.0025 µM; IC50 [2]: 5 to 15 nM

`CN(C)C[C@H](O)C(=O)N[C@H](C#N)Cc1ccc(-c2ccc3cnn(C4CCN(C5COC5)CC4)c3c2)cc1F` [Compound 287, (2S)—N-[(1S)-1-cyano-2-(2-fluoro-4-{1-[1-(oxetan-3-yl)piperidin-4-yl]indazol-6-yl}phenyl)ethyl]-3-(dimethylamino)-2-hydroxypropanamide] was tested. Which IC50 [3] did it give?
The IC50 was at least 0.0025 µM.

And the IC50 [2]?
Its IC50 is 5 to 15 nM.

For `CO[C@@H](CN(C)C)C(=O)N[C@H](C#N)Cc1ccc(-c2ccc3cnn(C4CCN(C5COC5)CC4)c3c2)cc1F` [Compound 288, (2S)—N-[(1S)-1-cyano-2-(2-fluoro-4-{1-[1-(oxetan-3-yl)piperidin-4-yl]indazol-6-yl}phenyl)ethyl]-3-(dimethylamino)-2-methoxypropanamide], which IC50 [3] is on record?
Its IC50 is 0.001 to 0.0025 µM.

What about the IC50 [2] of the same molecule?
The IC50 was 5 to 15 nM.
